The test system of one data set is Plasmodium falciparum. Description: Antiplasmodial activity against Plasmodium falciparum NF54 erythrocytic stages assessed as inhibition of parasite growth after 48 hrs by liquid scintillation counting method. The data set is classed as functional, organism-based. As to conditions: NF54, 48 h.
Data set [1] deals with Trypanosoma brucei rhodesiense. The data set can be described thus: Antitrypanosomal activity against bloodstream form of Trypanosoma brucei rhodesiense STIB900 assessed as inhibition of parasite growth incubated for 72 hrs by Alamar blue dye-based fluorometric analysis. Type of data set: functional, organism-based. The conditions noted are these: STIB900, 72 h. A general note: The colour change of resazurin is a common sign of viable cells or microbes.

For the next data set, the system named is Trypanosoma cruzi. The data set can be described thus: Antitrypanosomal activity against amastigote form of Trypanosoma cruzi Tulahuen C4 expressing LacZ infected in rat L6 cells assessed as inhibition of parasite growth incubated for 96 hrs by CPRG/Nonidet reagent based […] analysis. The data set is classed as functional, organism-based. The conditions noted are these: Tulahuen C4, L6, 96 h.

Another data set deals with Leishmania donovani. Description: Antileishmanial activity against Leishmania donovani MHOM/ET/67/L82 amastigotes assessed as inhibition of parasite growth measured after 72 hrs by alamar blue dye based fluorometric analysis. Type of data set: functional, organism-based. The conditions noted are these: MHOM/ET/67/L82, 72 h.
The next data set relates to L6. Description: Cytotoxicity against rat L6 cells measured after 72 hrs by alamar blue dye based fluorometric analysis. The data set is classed as cell-based. As to conditions: L6, 72 h.
Data set [2] is described as follows: Selectivity index, ratio of IC50 for cytotoxicity against rat L6 cells to IC50 for antiplasmodial activity against Plasmodium falciparum NF54. Type of data set: toxicity, cell-based. As to conditions: read-out: Ratio IC50.

We go through 5 compounds from ChEMBL document CHEMBL4834425, “Spirombandakamine A3 and Cyclombandakamines A8 and A9, Polycyclic Naphthylisoquinoline Dimers, with Antiprotozoal Activity, from a Congolese Ancistrocladus Plant” (J Nat Prod, 2021).

On to `COc1ccc2c3c1C(=O)C[C@]1(C)Oc4c(cc(-c5c(O)cc(OC)c6c5C[C@H](C)N(C)[C@@H]6C)c5cc(C)cc(OC)c45)[C@]31Oc1cc(OC)c3c(c1-2)C[C@@H](C)N[C@H]3C`, for which the IC50 (in general, the point on the concentration scale where inhibition reaches its midpoint) was found to be 0.152 µM with Plasmodium falciparum; 4.08 µM in data set [1]; 35.6 µM with Trypanosoma cruzi; 27.9 µM in the data set with Leishmania donovani; 19.3 µM in the data set with L6. The selectivity ratio in data set [2] worked out at 127.

On to `COc1ccc2c3c1C(=O)C[C@]31c3cc(-c4c(O)cc(OC)c5c4C[C@@H](C)N[C@@H]5C)c4cc(C)cc(OC)c4c3O[C@]1(C)Oc1cc(OC)c3c(c1-2)C[C@@H](C)N(C)[C@@H]3C`, for which the half-maximal inhibitory concentration (IC50) in the data set on Plasmodium falciparum was 0.071 µM; in data set [1], 0.292 µM; with Trypanosoma cruzi, 17.3 µM; in the data set on Leishmania donovani it was over 100 µM; in the data set with L6 it was 19.3 µM. Further, the selectivity ratio in data set [2] was 272.

For `COc1ccc2c3c1C(=O)C[C@]1(C)Oc4c(cc(-c5c(O)cc(OC)c6c5C[C@H](C)N(C)[C@@H]6C)c5cc(C)cc(OC)c45)[C@]31Oc1cc(OC)c3c(c1-2)C[C@@H](C)N[C@@H]3C`, the IC50 was 0.059 µM in the data set with Plasmodium falciparum; 0.738 µM in data set [1]; 23.6 µM with Trypanosoma cruzi; 54.2 µM with Leishmania donovani; 16.8 µM in the data set with L6. Further, the selectivity ratio in data set [2] was 282.

Take `O=C(Cn1ccnc1[N+](=O)[O-])NCc1ccccc1` [BENZNIDAZOLE]: the 50% inhibitory concentration (IC50) in the data set with Trypanosoma cruzi is 2.77 µM.

For `CCCCCCCCCCCCCCCCOP(=O)([O-])OCC[N+](C)(C)C` [MILTEFOSINE], in the data set with Leishmania donovani, the half-inhibitory concentration (IC50) stood at 0.39 µM.
